Where “and” joins values, the source holds several entries; their conditions need not be identical. Equal entries are not always repeated.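 Dose response: 5 concentrations. Exposure: 48 h. Format: 96-well plates. Endpoint: linear interpolation; highest concentration if not reached. GI50 marks 50% less growth. TGI: total growth inhibition.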
Key:
Assay in all cases: NCI tumour cell line growth inhibition, 48 h
[1] = tested on: HOP-62 NSCLC
[2] = tested on: UACC-62 melanoma
[3] = tested on: MDA-MB-231 breast
[4] = tested on: HCT-15 colon
[5] = tested on: OVCAR-8 ovarian
[6] = tested on: U251 CNS
[7] = tested on: TK-10 renal
[8] = tested on: M14 melanoma
[9] = tested on: CAKI-1 renal

SMILES: C[C@@H]1[C@@H](C)C(c2ccccc2)O[Si]1(C(C)(C)C)C(C)(C)C (some centres not stated)
- TGI [1]: 31.4 µM
- TGI [2]: 46.3 µM
- TGI [3]: 31.3 µM
- TGI [4]: > 55.3 µM
- TGI [5]: 33.8 µM
- TGI [6]: 30.7 µM
- TGI [7]: 29.9 µM
- TGI [8]: 42.2 µM
- TGI [9]: 33 µM

SMILES: ClC(Cl)(Cl)C1CCOC1n1nnc2ccccc21 (configuration not stated)
- TGI [1]: > 100 µM
- TGI [2]: > 100 µM
- TGI [3]: > 100 µM
- TGI [5]: > 100 µM
- TGI [6]: > 100 µM
- TGI [7]: > 100 µM
- TGI [8]: > 100 µM
- TGI [9]: > 100 µM

SMILES: c1nc(NCCc2cnc[nH]2)c2[nH]cnc2n1
- TGI [1]: > 100 µM
- TGI [2]: > 100 µM
- TGI [3]: > 100 µM
- TGI [4]: > 100 µM
- TGI [5]: > 100 µM
- TGI [6]: > 100 µM
- TGI [7]: > 100 µM
- TGI [8]: > 100 µM
- TGI [9]: > 100 µM

SMILES: O=C1CCCNn2c(nc3ncccc3c2=O)N1
- TGI [1]: > 100 µM
- TGI [2]: > 100 µM
- TGI [3]: > 100 µM
- TGI [4]: > 100 µM
- TGI [5]: > 100 µM
- TGI [6]: > 100 µM
- TGI [7]: > 100 µM
- TGI [8]: > 100 µM
- TGI [9]: > 100 µM

SMILES: NCCCN(CCCCN(CCCN)C(=O)OCc1ccccc1)C(=O)OCc1ccccc1
- TGI [1]: > 100 µM
- TGI [2]: > 100 µM
- TGI [3]: 93.7 µM
- TGI [4]: > 100 µM
- TGI [5]: > 100 µM
- TGI [6]: > 100 µM
- TGI [7]: > 100 µM
- TGI [8]: > 100 µM
- TGI [9]: > 100 µM

SMILES: COC(=O)C1CC2(C)C=CC1N(C(=O)OCc1ccccc1)C2 (configuration not stated)
- TGI [1]: > 100 µM
- TGI [2]: > 100 µM
- TGI [3]: > 100 µM
- TGI [4]: > 100 µM
- TGI [5]: > 100 µM
- TGI [6]: > 100 µM
- TGI [7]: > 100 µM
- TGI [8]: > 100 µM
- TGI [9]: > 100 µM

SMILES: O=C(/C(=C(/O)c1ccccc1)c1nc2ccccc2sc1=O)c1ccccc1
- TGI [1]: 44.1 µM
- TGI [2]: > 100 µM
- TGI [3]: > 100 µM
- TGI [4]: > 100 µM
- TGI [5]: > 100 µM
- TGI [6]: > 100 µM
- TGI [7]: > 100 µM
- TGI [8]: 33.3 µM
- TGI [9]: > 100 µM

SMILES: COc1cc(/C=C2\CC/C(=C\c3cc(OC)c(O)c(OC)c3)C2=O)cc(OC)c1O
- TGI [1]: > 100 µM
- TGI [2]: 3.8 µM
- TGI [3]: 21.4 µM
- TGI [4]: 18.7 µM
- TGI [5]: > 26.1 µM
- TGI [6]: > 49.2 µM
- TGI [7]: > 100 µM
- TGI [8]: > 23.6 µM
- TGI [9]: 7.32 µM

SMILES: COc1ccc(-n2c(=O)c3[nH]c(=S)[nH]c3n(-c3ccc(OC)cc3)c2=S)cc1
- TGI [1]: > 100 µM
- TGI [2]: > 100 µM
- TGI [3]: > 100 µM
- TGI [4]: > 100 µM
- TGI [5]: > 100 µM
- TGI [6]: > 100 µM
- TGI [7]: > 100 µM
- TGI [8]: > 100 µM
- TGI [9]: > 100 µM

SMILES: O=C1c2cc(Cc3ccccc3)c(=O)c(Cc3ccccc3)cc2C(=O)c2cc(Cc3ccccc3)c(=O)c(Cc3ccccc3)cc21
- TGI [1]: > 100 µM
- TGI [3]: > 100 µM
- TGI [4]: > 100 µM
- TGI [5]: > 100 µM
- TGI [6]: > 100 µM
- TGI [7]: > 100 µM
- TGI [8]: > 100 µM
- TGI [9]: > 100 µM

SMILES: CC1CC[C@@]2(OC1)O[C@H]1[C@H](O)[C@H]3[C@@H]4CC[C@H]5C[C@@H](OC6OC(CO)C(OC7OC(CO)C(O)C(OC8OCC(O)C(O)C8O)C7OC7OC(CO)C(O)C(O)C7OC7OC(CO)C(O)C(O)C7O)C(O)C6O)[C@H](O)C[C@]5(C)[C@H]4CC[C@]3(C)[C@H]1[C@@H]2C (some centres not stated)
- TGI [1]: > 10 µM
- TGI [2]: > 10 µM
- TGI [3]: 5.85 µM
- TGI [4]: > 10 µM
- TGI [5]: > 10 µM
- TGI [6]: > 10 µM
- TGI [7]: > 10 µM
- TGI [8]: > 10 µM
- TGI [9]: > 10 µM

SMILES: Cc1cc(C)c2c(c1)CC1(Cc3cc(C)c(C)cc3C1=O)C2=O (configuration not stated)
- TGI [2]: > 100 µM
- TGI [3]: > 100 µM
- TGI [4]: > 100 µM
- TGI [5]: > 100 µM
- TGI [6]: > 100 µM
- TGI [7]: > 100 µM
- TGI [8]: > 100 µM
- TGI [9]: > 100 µM

SMILES: O=c1[nH]nc(-c2ccccc2)n1/N=C/c1ccc([N+](=O)[O-])o1
- TGI [1]: 19.7 µM
- TGI [2]: 11.2 µM
- TGI [3]: 19.5 µM
- TGI [4]: 17.3 µM
- TGI [6]: 18.3 µM
- TGI [7]: > 100 µM
- TGI [8]: 11.2 µM
- TGI [9]: 28.2 µM

SMILES: O=C1NC(=O)c2ccccc2/C1=C/c1ccc2c(c1)OCO2
- TGI [1]: 28.7 µM
- TGI [2]: 54.3 µM
- TGI [3]: 47.5 µM
- TGI [4]: 31.8 µM
- TGI [5]: 95.1 µM
- TGI [7]: > 100 µM
- TGI [8]: 76.5 µM
- TGI [9]: 98.4 µM

SMILES: N#CC(CCN1CCC(Nc2ccccc2)(c2nnnn2C2CCCCC2)CC1)(c1ccccc1)c1ccccc1
- TGI [1]: > 100 µM
- TGI [2]: > 100 µM
- TGI [3]: > 100 µM
- TGI [4]: > 100 µM
- TGI [5]: > 100 µM
- TGI [6]: > 100 µM
- TGI [7]: > 100 µM
- TGI [8]: > 100 µM

SMILES: COc1ccc(C2C3=C(N=C4SC(C(C)=O)=C(C)N42)c2ccccc2CC3)cc1 (configuration not stated)
- TGI [1]: > 100 µM
- TGI [2]: > 100 µM
- TGI [3]: > 100 µM
- TGI [4]: > 100 µM
- TGI [5]: > 100 µM
- TGI [6]: > 100 µM
- TGI [8]: > 100 µM

SMILES: CC(C)(C)c1ccc(C(O)CCCN2CCC(C(O)(c3ccccc3)c3ccccc3)CC2)cc1 (configuration not stated)
- GI50 [8]: 1.7 µM and 13.5 µM
- TGI [8]: 3.21 µM and 18.4 µM

SMILES: C1=NCCNCCNCCN=Cc2ccc(cc2)OCc2cccc(n2)COc2ccc1cc2
- TGI [1]: > 100 µM
- TGI [2]: > 100 µM
- TGI [3]: > 100 µM
- TGI [4]: > 100 µM
- TGI [5]: > 100 µM
- TGI [6]: > 100 µM
- TGI [8]: > 100 µM
- TGI [9]: > 100 µM

SMILES: Cc1cc2[nH]c3c(C#N)c(-c4ccccc4)c(N=Nc4ccc(F)cc4)c(=O)n3c2cc1C
- TGI [1]: > 100 µM
- TGI [3]: > 100 µM
- TGI [4]: > 100 µM
- TGI [6]: > 100 µM
- TGI [7]: > 100 µM
- TGI [8]: > 100 µM
- TGI [9]: > 100 µM

SMILES: Nc1ccc(-c2nc3ccccc3s2)cc1Cl
- TGI [1]: 72.8 µM
- TGI [2]: > 100 µM
- TGI [3]: > 100 µM
- TGI [4]: > 100 µM
- TGI [5]: > 100 µM
- TGI [6]: > 100 µM
- TGI [8]: > 100 µM
- TGI [9]: > 100 µM

SMILES: CCOC(=O)c1ccc(Nc2nc3ccccc3nc2-c2cccs2)cc1
- TGI [1]: > 100 µM
- TGI [2]: 33.6 µM
- TGI [3]: > 100 µM
- TGI [4]: > 100 µM
- TGI [5]: > 100 µM
- TGI [6]: > 100 µM
- TGI [7]: 58.5 µM
- TGI [9]: > 100 µM

SMILES: FC(F)(F)c1cc(N(C2c3ccccc3C=Cc3ccccc32)P(Cl)Cl)cc(C(F)(F)F)c1
- TGI [1]: 37.3 µM
- TGI [3]: 35 µM
- TGI [4]: 45.5 µM
- TGI [5]: 35.7 µM
- TGI [6]: 33.8 µM
- TGI [7]: > 100 µM
- TGI [8]: 58 µM
- TGI [9]: 59 µM

SMILES: O=P1(N2CCOCC2)OCCO1
- TGI [2]: > 100 µM
- TGI [4]: > 100 µM
- TGI [6]: > 100 µM
- TGI [8]: > 100 µM
- TGI [9]: > 100 µM
